Data from patent US20260191845A1, “PYRIDINE-2-THIOL 1-OXIDE DERIVATIVES AND THEIR USE FOR TREATMENT OF MAMMALIAN INFECTIONS CAUSED BY MYCOBACTERIUM OR FUNGI” (priority 2022, published 2026).
Several values for one entry are separate records, joined by “and”; a condition that tells them apart may be missing. Identical values can stand only once. Like-named read-outs stand apart in the source and are kept apart here.

How the values were obtained:
M. smegmatis mc2155 = assay: REMA MIC90, broad spectrum of microorganisms; format: cell-based; conditions: Mycolicibacterium smegmatis, M. smegmatis mc2155, Wild-type, read-out: MIC to Compound 2
[1] = Subacute toxicity, 14 days per oral administration in mice; format: in vivo
Protocol: (§1) Acute and subacute toxicity of compound 2 was experimentally studied for intragastric administration in white mice. […] The compound was solubilized in saline to be administrated to animals.
Evaluation of subacute toxicity of compound 2 observation time after 14 days per oral administration.
Experimental animals: 14 C57BL/6 male white mice, 7 weeks old, weight 20-22 g.
The following experimental procedure was used: • administration route of the compound: per os; • dosage 50 mg/kg once a day for 14 days; • volume introduced into 0.3 ml/20 g (15 ml/kg); • data recorded: behavior, weight changes, rectal temperature, mortality.

[2] = test system: Sporobolomyces salmonicolor; assay: Antifungal agar well diffusion assay; conditions: 20 μL water solution in 4 mm well
Protocol: (§2) The well diffusion test was performed using Casitone agar. The inoculum used was prepared using the Candida or Aspergillus strains from a 24-hour culture on Sabouraud dextrose agar, a suspension was made in a sterile saline solution (0.85%). The turbidity of the suspension was adjusted with a spectrophotometer at 530 nm to obtain a final concentration to match that of a 0.5 McFarland standard (0.5-2.5×10^3). 20 mL of Bacto-casitone were melted, cooled to 55° C. and then inoculated with 1 mL of the organism suspension. The inoculated agar was poured into the assay plate (9 cm in diameter) and allowed to cool down on a leveled surface.

Candida albicans H8 = assay: Antifungal agar well diffusion assay; conditions: 20 μL water solution in 4 mm well
Protocol: as §2

M. bovis BCG Pasteur = assay: microbe, parasite or virus in culture; format: cell-based; conditions: Mycobacterium tuberculosis variant bovis BCG, read-out: MIC to Compound 2
Aspergillus niger = assay: Antifungal agar well diffusion assay; conditions: 20 μL water solution in 4 mm well
Protocol: as §2

[3] = format: physicochemical; conditions: at a temperature of 20±3° C., from accelerated aging at 55±2° C.
Protocol: The aim of the study is to investigate the physical and chemical properties of a substances at elevated temperature and to establish an experimental expiration date for the substances (saline form vs base form).
• 5-(ethoxycarbonyl)pyridine-2-thiolate 1-oxide (base form) • sodium 5-(ethoxycarbonyl)pyridine-2-thiolate 1-oxide (compound 2—salt form)
• Storage temperature: (55±2° C.)
Double layer polyethylene bag. The package is placed in a bag made of laminated aluminum foil. Each package is wrapped in wrapping paper. […]

[4] = Acute toxicity, intragastric administration in mice; format: in vivo, C57BL/6 male white mice; conditions: per os, doses lower than 300 mg/kg, 14 days observation
Protocol: as §1
Experimental animals: 35 C57BL/6 male white mice, 7 weeks old, weight 20-22 g. The following experimental procedure was used: • administration route of the compound: per os; • number of doses: […]; • dosage: 100-200-250-300-500-600-750 mg/kg; • volume introduced into 0.3 ml/20 g (15 ml/kg); • data recorded: behavior, weight changes, rectal temperature, mortality.

[5] = Pharmacokinetic study in mice; format: in vivo, Balb/C male mice; conditions: 100 mg/kg intragastric, saline solution
Protocol: The pharmacokinetics of the compound 2 has been studied white Balb/C male mice. 27 animals with average body weight of 20 g were selected for the study. The animals were kept on standard vivarium ration with dry pelleted feed before the experiment. All the test animals had free access to water but were deprived of food for 1 hour before administration of the compound. This regimen was continued for another hour after the administration.
Compound in a dose of 100 mg/kg of body weight was administered as 0.5 mL of saline solution by intragastric intubation.
The animals were euthanized by decapitation for blood and brain sampling. Blood and brain samples (3 animals per time point) were taken at 15, 30, 60, 120, 240, 360 1440 min after administration for pharmacokinetic evaluation. Blood was collected in heparinized tubes and centrifuged at 3500 RPM. Plasma was separated from formed elements and immediately frozen at −20° C. in freezer. This storage continued before transferring of plasma for analysis. Serum from 6 untreated animals was used as control and for equipment calibration with compound. Mice brain was immediately frozen at −120° C.

[6] = test system: Mycobacterium abscessus ATCC 19977; assay: REMA MIC90 against M. abscessus ATCC 19977; format: cell-based; conditions: Mycobacteroides abscessus, ATCC19977
Protocol: Briefly, serial 2-fold dilutions of drug are prepared in 96-well microtiter plates (Fluoronunc, Thermo Fisher, Waltham, MA, USA) in 100 μL of Middlebrook 7H9 medium (Difco), supplemented with 10% OADC without addition of Tween 80. Then, M. abscessus log-phase cultures were diluted (OD600=0.02) and added in the 96-well microtiter plate. Growth controls containing no compound and sterile controls without inoculum are also included. […] After 1 day of incubation at 37° C., 10 μL of resazurin (0.025% w/v) is added to each well, and bacterial viability is assessed after a further 24 h of incubation using a Fluoroskan™ Microplate Fluorometer (Thermo Fisher Scientific, Waltham, MA, USA; excitation=544 nm, emission=590 nm). […] Results are expressed as the average of at least three independent replicates and presented on the following Table 1.

M. massiliense 2005-0524 = assay: REMA MIC90, broad spectrum of microorganisms; format: cell-based; conditions: Mycobacteroides abscessus, 20050524, M. massiliense 2005-0524, Wild-type, read-out: MIC to Compound 2
M. tuberculosis H37Rv = assay: REMA MIC90, broad spectrum of microorganisms; format: cell-based; conditions: Mycobacterium tuberculosis, Wild-type, read-out: MIC to Compound 2
M. bolletii 1999-0888 = assay: REMA MIC90, broad spectrum of microorganisms; format: cell-based; conditions: Mycobacteroides abscessus, 19990888, M. bolletii 1999-0888, Wild-type, read-out: MIC to Compound 2
[7] = mice, per os, 50 mg/kg once a day for 14 days

CCOC(=O)c1ccc([S-])[n+]([O-])c1.[Na+] [Compound 2, Sodium 5-(ethoxycarbonyl)pyridine-2-thiolate 1-oxide]
MIC (M. smegmatis mc2155): 1000 µg/mL | Weight of mice, Experimental group, 28 Jan. 2021, M ± m ([1]; group mean, after 14 days of 50 mg/kg per os daily): 21.13 ± 0.308 gramm | Weight of mice, Experimental group, 13 Jan. 2021, M ± m ([1]; group mean, start of 50 mg/kg per os daily treatment): 20.71 ± 0.4 gramm | Weight of individual mice, Experimental group, 28 Jan. 2021 ([1]; individual mice, after 14 days of 50 mg/kg per os daily, 50 mg/kg): 21.1 gramm and 19.5 gramm and 20.9 gramm and 21.7 gramm and 21.5 gramm (2×) and 22.4 gramm and 20.5 gramm | Weight of individual mice, Experimental group, 13 Jan. 2021 ([1]; individual mice, start of 50 mg/kg per os daily treatment, 50 mg/kg): 20.1 gramm and 22.1 gramm and 19.2 gramm and 19.7 gramm and 20.9 gramm and 20.5 gramm and 22.8 gramm and 20.4 gramm | Subacute toxicity: general state and behavior [1, 7]: did not cause changes in the general state and behavior of the mice | Subacute toxicity: mass of mice, experimental vs control group [1, 7]: No significant differences | Subacute toxicity: animal death ([1]; mouse, in vivo, 50 mg/kg): there were no cases of animal death | Inhibition Zone of Test Microorganism [2]: 46 mm | Inhibition Zone of Test Microorganism (Candida albicans H8): 53 mm | MIC (M. bovis BCG Pasteur): 62.5 µg/mL | Inhibition Zone of Test Microorganism (Aspergillus niger): 28 mm | Experimental shelf life [3]: about 2 years | Acute toxicity: animal death [4]: there were no cases of animal death | Acute toxicity: general state and behavior [4]: did not cause changes in the general state and behavior of the mice | Bioavailability [5]: high bioavailability | MIC ([6]; MIC90, REMA, Table 1, read-out: MIC in M. abscessus ATCC 19977): 125 µg/mL | MIC ([6]; MIC90, M. abscessus ATCC 19977, Wild-type, Table 2, read-out: MIC to Compound 2): 250 µg/mL | MIC (M. massiliense 2005-0524): 500 µg/mL | MIC (M. tuberculosis H37Rv): 25 µg/mL | MIC (M. bolletii 1999-0888): 500 µg/mL
